# Reference: paper PMC11533527, “A yeast two-hybrid system to obtain triple-helical ligands from combinatorial random peptide libraries” (The Journal of Biological Chemistry, 2024)
# Where no end group is shown, it is not given here.
# What was measured:
# [1] = tested on: HSP47 (GAL4-BD-fusion); test: Yeast two-hybrid interaction with BD-fusion HSP47 (indicator of triple-helical conformation); type: cell-based, mouse
# From the text: We expressed (Pro-Gly-Pro)-repeating peptides with a repeat number of 10, 13, or 23, as GAL4-AD-fusion proteins in yeast cells. The lengths of (Pro-Gly-Pro)10, (Pro-Gly-Pro)13, and (Pro-Gly-Pro)23 correspond to those of the N-terminal host, the guest plus the N-terminal host, and the guest plus the N- and C-hosts in the above peptide design (Fig. 1B), respectively. The peptides with fewer (Pro-Gly-Pro)-repeats have lower thermal stability of the triple helices ([19]). We set three different culture temperatures, 16, 30, and 37 °C, with the expectation of identifying the binding of BD-fusion HSP47 to these three peptides with GAL4-AD by the yeast two-hybrid system (Fig. 3). The mated yeast cells were selected by His and Ade auxotrophy in the presence of aureobasidin and X-α-Gal. When HSP47 interacts with the peptides, GAL4-BD and GAL4-AD are brought into proximity to activate the transcription of reporter genes (AUR1-C, ADE2, HIS3, and MEL1). The reporter gene expression allows yeast cells to survive on the plates and turn blue by degrading X-α-Gal. The interaction between HSP47 (bait) and peptides (prey) was detected by the growth of blue colonies on the selection plates. […] HSP47 bound only to (Pro-Gly-Pro)23 in yeast cells at 37 °C. At 30 °C, HSP47 bound to (Pro-Gly-Pro)13 as well as (Pro-Gly-Pro)23, but not to (Pro-Gly-Pro)10. At 16 °C, HSP47 bound to all three of the peptides.
# A gene fragment encoding full-length mature mouse PEDF and HSP47 with EcoRI and SalI sites was obtained by PCR amplification, as described in the literature ([15], [45]). The DNA fragments and a pGBKT7 vector were ligated after digestion with EcoRI and SalI and transformed into E. coli HST08 competent cells (TaKaRa, Shiga, Japan). To prepare plasmids encoding PEDF R148A and D255N mutants, inverse PCR was performed with the above GAL4-BD-fused PEDF in a pGBKT7 vector as a template by Primestar MAX (TaKaRa). The PCR product was ligated with Gibson assembly reagents (New England Biolabs, Hertfordshire, UK), followed by transformation into HST08 competent cells. […]
# (§1) Y2H interaction was detected by incubation of the generated diploids on minimal-medium quadruple-dropout (QDO; SD/-Leu-Trp-His-Ade) plates with 40 μg/ml X-α-Gal (FUJIFILM Wako Pure Chemical, Osaka, Japan) and 200 ng/ml aureobasidin A (TaKaRa) (QDOGA) plates and incubated for 3–5 days. Positivity for interaction was recorded upon the generation of yeast colonies that appeared blue.
# [2] = tested on: full-length mouse PEDF (GAL4-BD-fusion); test: Yeast two-hybrid interaction of AD-fusion peptides with BD-fusion WT-PEDF; type: cell-based; conditions: yeast diploids cultured at 25 °C for 5 days
# From the text: To determine whether the peptides with the obtained sequences bind to PEDF in the same manner as the native PEDF-binding sequence, α1(I)930–938, we examined independent two-hybrid interactions of the three peptides and their mutants in which Arg at Yaa4 was substituted with Ala. […] We also examined the binding of the peptides to collagen-binding-null or heparin-binding-null PEDF mutants that we already reported ([33]). […] Meanwhile, the interaction was not observed for the peptide with the 1-2 sequence, probably because Cys at Xaa9 led to weaker interaction with PEDF than Leu ([15]). […] By contrast, the interactions were maintained using heparin-binding-null PEDF mutant (PEDF R148A) as a bait protein.
# The bait and prey plasmids were transformed into S. cerevisiae Y2H gold (MATa, trp1-901, leu2-3, 112, ura3-52, his3-200, gal4Δ, gal80Δ, LYS2::GAL1UAS-Gal1TATA-His3, GAL2UAS-Gal2TATA-Ade2, URA3::MEL1UAS-Mel1TATA, AUR1-C MEL1; TaKaRa) and Y187 strains (MATα, ura3-52, his3-200, ade2-101, trp1-901, leu2-3, 112, gal4Δ, gal80Δ, met-, URA3::GAL1UAS-Gal1TATA-LacZ, MEL1; TaKaRa), in accordance with the manufacturer’s protocol. They were incubated on SD/-Trp and SD/-Leu plates, respectively, at 30 °C for 4–5 days for the selection of transformed clones.
# Diploids were prepared by mixing them on yeast peptone dextrose adenine (YPDA) plates. After incubation at 30 °C overnight, they were spread on minimal-medium double-dropout (DDO; SD/-Leu-Trp) plates and incubated at 30 °C for 2–3 days for the selection of diploids.
# as §1
Substance,Two-hybrid interaction with HSP47 ([1]; cultured at 30 °C for 3 days),Two-hybrid interaction with BD-fusion WT-PEDF (blue colonies on QDOGA plates) [2],Two-hybrid interaction with HSP47 ([1]; cultured at 37 °C for 3 days)
(Pro-Gly-Pro)13 [GAL4-AD-fusion (Pro-Gly-Pro)13],bound,,
(Pro-Gly-Pro)10 [GAL4-AD-fusion (Pro-Gly-Pro)10],not,,
(Pro-Gly-Pro)10-Lys-Gly-His-Arg-Gly-Phe-Ser-Gly-Leu-(Pro-Gly-Pro)10 [α1(I)930–938],,observed,
(Pro-Gly-Pro)23 [GAL4-AD-fusion (Pro-Gly-Pro)23],bound,,bound
"RGHRGFLGL [1-3, GAL4-AD-fusion peptide clone from the random library]",,observed,
"KGCRGLHGL [1-1, GAL4-AD-fusion peptide clone from the random library, flanked by (Pro-Gly-Pro)10 hosts]",,observed,
"RGVRGFEGC [1-2, GAL4-AD-fusion peptide clone from the random library]",,not observed,
